Measured values from patent publication US7910624B1, “Compositions for the treatment of blood disorders” (The Trustees of Boston University, priority 1995, dated 2011).

Tests used:
anemic juvenile baboons = test: In vivo reticulocyte proliferation and globin expression in phlebotomized anemic baboons; set-up: species or system baboon
Method: Experiments were performed to determine if administration of the chemical compositions could induce fetal globin gene expression in an in vivo model similar to humans (S. P. Perrin et al., Brit. J. Haematol. 88:555-61, 1994). Briefly, chemicals were prepared as sterile pharmaceutical solutions in pH adjusted sterile water. A variety of chemical compositions were administered sequentially to some baboons. After administration of one compound, a wash-out period with no compound administration was maintained until reticulocytes returned to base line prior to administration of the next compound. This was done, at least partly, to compare the magnitude of response which occurred within the same individual animal to different compounds.
Briefly, juvenile female baboons (2 years old) were catheterized with arterial and venous catheters and phlebotomized gradually every day to maintain a moderate anemia of 7.0 to 7.5 grams hemoglobin/dl. Fetal reticulocytes, the newly produced red blood cells containing fetal globin, were assayed using a monoclonal antibody against fetal globin (HbF) as described by G. Dover et al. (Blood 67:735-38, 1986). Briefly, blood was stained with two antibodies, one specific for reticulocytes and another against fetal globin protein. The amount of antibody bound cells was determined by FACS analysis. Globin chain synthesis was assayed as described by J. B. Clegg et al. (J. Mol. Biol. 19:91-108, 1966). Briefly, reticulocytes were radio-labeled with ^3H-leucine which was incorporated in equal proportions into actively synthesized globin chains. After incubation in leucine-free media, cells were washed, and globin proteins were separated and purified by column chromatography. Radioactivity incorporated into each peak is compared and the ratios of gamma to gamma plus beta globin calculated. Each animal served as its own control with baseline monitoring assays performed for 4-6 weeks before any drug was administered. Phlebotomy was continued daily, so that peripheral HbF levels in the animals were not considered to be accurate over the short treatment time-frames and were not monitored. Safety monitoring was performed by frequent physical examinations, quantitation of food eaten, activity and frequent chemistry and hematology monitoring. Complete blood counts were assayed before, during and after treatment. Results presented were not adjusted to account for the daily phlebotomy.

[1] = tested on: BFU-e (burst forming unit-erythroid) colonies from peripheral blood mononuclear cells; test: Stimulation of erythroid proliferation in cell cultures (BFU-e colony growth); assay type: cell-based, human; settings: 0.1 mM; 13-14 days; compared with control cultures
Method: Peripheral blood was collected from normal volunteers and patients with anemia due to sickle cell disease or thalassemia. Mononuclear cells were isolated by Ficoll-Hypaque (Pharmacia Biotech; Piscataway, N.J.) centrifugation and cultured in Iscove's Modified Dulbecco's Media (IMDM; GIBCO/BRL; Grand Island, N.Y.) supplemented with 10% fetal calf serum, 300 μg/ml glutamine, 3 units/ml IL-3 (Amgen; Thousand Oaks, Calif.), and 2 units/ml erythropoietin (Terry Fox Labs; Vancouver, B.C.). Chemical compounds were obtained from Sigma Chemical (St. Louis, Mo.) or Aldrich Chemical (Milwaukee, Wis.), unless otherwise indicated, and formulated into pharmaceutical compositions by dissolving in aqueous solutions of media or sterile water pH adjusted to about 7.4. Solutions were sterilized by passage at least once through 0.22 micron Nalgene filters and added to cell cultures at final concentrations that are pharmaceutically achievable in vivo (typically between about 0.1 mM to 2.0 mM). Cells were incubated with compounds for between 13-14 days at 37° C. in humidified 5% CO2, and fed and passed, as necessary. Colony growth, proportion of fetal globin-expressing cells and amounts of fetal globin production were assayed. Results are presented in Table 1 as BFU-e stimulation (colony growth).

[2] = tested on: erythroid cells (peripheral blood cells); test: Erythroid cell viability by Calcein-AM fluorescent staining (FIG. 2); assay type: cell-based; settings: 0.5 mM
Method: Compositions were tested for the ability to directly stimulate erythroid cell growth. Cell growth stimulation is a useful property for an agent to be used to treat anemias and distinguishes such agents from the cytotoxic drugs currently being tested for treatment of hemoglobinopathies. Cell viability analyses were performed using fluorescent staining to detect living cells. Cells were in log phase of growth in 6-well dishes when used in proliferation assays. For enumeration of living cells, wells were washed once with medium to remove nonadherent or dead cells. Remaining live cells were labeled with 2 μM 2′,7′-bis-(carboxyethyl)-5-(and 6)-carboxy-fluorescein acetoxy-methyl ester (Calcein-AM) (Molecular Probes; Eugene, Oreg.) for 20 minutes at 37° C. and washed once. Fluorescence intensity of live cells was read on a CytoFluor 2300 Fluorescence Plate Scanner (Millipore; Bedford, Mass.) at excitation and emission wavelengths of 485 and 530 nm, respectively. The fluorescence intensity of a well was proportional to the number of living cells in the well. Background fluorescence was measured separately for each plate and subtracted from all readings. Each experiment was performed in triplicate or quadruplicate. The standard deviation (SD) of repetitive readings was less than 30% of the mean. Results are depicted in FIG. 2.

[3] = tested on: erythroid progenitor cells cultured from human cord blood; test: Fetal globin expression in human cell cultures (3H-leucine labelled globin chains, densitometry); assay type: cell-based
Method: Compositions were tested for activity in inducing fetal globin expression and protein production in erythroid progenitor cells cultured from human cord blood and analyzed as described by S. P. Perrine et al. (Blood 74: 454-60, 1989). Briefly, mononuclear cells were cultured in IMDM with 30% fetal calf serum and 2 units erythropoietin per ml to induce erythroid differentiation. Colonies were harvested on day 12-13, incubated with radio-labelled (^3H) leucine, and further incubated in leucine-free media, still in the presence of compounds, overnight. Globin composition in the erythroid cells was analyzed by laser densitometry of electrophoretically separated globin chains stained with Coomassie blue, and by autoradiography. Treated cells were incubated for 12-13 days (Table 2, Experiments A and B) or overnight (Table 2, Experiment C) in the presence of the indicated compounds and compared to untreated control cells cultured from the same human subject.

[4] = tested on: human erythroid cell line K562; test: Cell viability / growth of K562 by Calcein-AM fluorescence; assay type: cell-based; settings: 0.5 mM; over 3 days
Method: Such activities might limit their utility for treatment of anemias such as occur in thalassemia, but alternatively would be useful for anticancer effects. To determine cell viability, human erythroid cells were cultured in the presence and absence of these compounds for 4 days and the amount of DNA fragmentation which occurred was measured.
Cell viability analyses were performed using fluorescent staining to detect living cells. Cells were in log phase of growth in 6-well dishes when used in proliferation assays. For enumeration of living cells, wells were washed once with medium to remove nonadherent or dead cells. Remaining live cells were labeled with Calcein-AM for 20 minutes at 37° C. and washed once. Fluorescence intensity of adherent live cells was read on a CytoFluor 2300 Fluorescence Plate Scanner (Millipore; Bedford, Mass.) at excitation and emission wavelengths of 485 and 530 nm, respectively. The fluorescence intensity of a well was proportional to the number of living cells in the well. Background fluorescence was measured separately for each plate and subtracted from all readings. Each experiment was performed in triplicate or quadruplicate. The standard deviation (SD) of repetitive readings was less than 30% of the mean.
At higher concentrations, still easily achievable in vivo, arginine butyrate (0.5 mM) and dihydrocinnamic acid (greater than 0.5 mM) inhibited growth of this tumor cell line by approximately 50%. Therefore, these compounds are also useful as anti-tumor agents.

bone marrow cells = settings: continuous intravenous administration; cited from earlier work

| Structure (SMILES) | fetal reticulocytes after treatment (anemic juvenile baboons; infused 4 days, 300 to 500 mg/kg per day, from 10%) [%] | red blood cell count after treatment (anemic juvenile baboons; intravenous 1,000 mg/kg/day, 4 days, from 2.3) | total hemoglobin after treatment (anemic juvenile baboons; intravenous 1,000 mg/kg/day, 4 days, from 6.6) [grams/dl] | packed red blood cell volume after treatment (anemic juvenile baboons; intravenous 1,000 mg/kg/day, 4 days, from 20.9%) | BFU-e Stimulation (colony growth) [1] [%] | erythroid cell growth and proliferation compared to untreated controls (FIG. 2) [2] | Gamma Increase ([3]; Exp. A, 0.1 mM, 12-13 days, above untreated cells) [%] | Gamma Increase ([3]; Exp. C, 0.1 mM, overnight) [%] | Gamma Increase ([3]; Exp. C, 0.2 mM, overnight) [%] | Gamma Increase ([3]; Exp. C, 0.5 mM, overnight) [%] | growth of K562 [4] | increase in γ globin mRNA of bone marrow cells (bone marrow cells) |
| --- | --- | --- | --- | --- | --- | --- | --- | --- | --- | --- | --- | --- |
| O=C(O)CCc1ccccc1 [DHC, Dihydrocinnamic acid] | 17 | 2.73 ×10^6 cells/μl | 7.3 | 22.7 % of the blood | 124 | either had no effect or stimulated erythroid cell growth and proliferation | 12.0 | 24 | 20.0 | 19 | either did not inhibit, or slightly enhanced growth | – |
| Nc1ncn([C@@H]2O[C@H](CO)[C@@H](O)[C@H]2O)c(=O)n1 [AZA, 5-azacytidine] | – | – | – | – | – | – | – | – | – | – | – | five- to seven-fold |
